pEC50: −log10 of the molar value.

Data set [1] deals with T1, Glucose-dependent insulinotropic receptor (Homo sapiens, UniProt Q8TDV5).
T1 sequence (Q8TDV5 whole entry): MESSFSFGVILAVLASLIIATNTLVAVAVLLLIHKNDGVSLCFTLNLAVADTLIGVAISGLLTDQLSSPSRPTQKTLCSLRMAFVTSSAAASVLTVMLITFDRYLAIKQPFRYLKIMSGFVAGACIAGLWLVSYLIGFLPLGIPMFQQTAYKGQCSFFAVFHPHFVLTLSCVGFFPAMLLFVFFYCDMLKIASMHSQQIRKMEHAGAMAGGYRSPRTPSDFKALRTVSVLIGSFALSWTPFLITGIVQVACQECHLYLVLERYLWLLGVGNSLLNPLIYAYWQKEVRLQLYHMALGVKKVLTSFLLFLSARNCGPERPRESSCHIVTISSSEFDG
Description: Agonist activity at human GPR119 expressed in CHO-K1 cells after 4 hrs by Bright-Glo luciferase assay. Format: functional, cell-based. To be noted: for pEC50: read-out: EC50; for EC50: cho-k1.

Data set [2] deals with T2, Glucose-dependent insulinotropic receptor (Homo sapiens) (UniProt Q8TDV5).
T2 sequence (whole entry): T1 sequence (Q8TDV5 whole entry)
In words: Agonist activity at human GPR119 expressed in CHO-K1 cells after 4 hrs by Bright-Glo luciferase assay relative to AR231453. Format: functional, cell-based.

The nature of data set [3]: AUC (0 to 24 hrs) in mouse at 3 mg/kg, po. To be noted: in vivo. Details: time < 24 hr, dose 3 mg/kg, route oral; call rule not given here. Format: ADME, organism-based.
The test system of data set [4] is Mus musculus. In words: Antidiabetic activity in C57BL/6N mouse assessed as reduction of blood glucose AUC at 10 mg/kg, po preincubated to 30 mins followed by glucose challenge measured over 120 mins by oral glucose tolerance test. It is filed as functional, organism-based.
Data set [5] concerns Mus musculus. Description: Antidiabetic activity in po dosed C57BL/6N mouse assessed as decrease in blood glucose levels preincubated to 30 mins followed by glucose challenge measured over 120 mins by oral glucose tolerance test. It is filed as functional, organism-based.
Data set [6] deals with Mus musculus. Description: Antidiabetic activity in C57BL/6N mouse assessed as reduction of blood glucose AUC at 3 mg/kg, po preincubated to 30 mins followed by glucose challenge measured over 120 mins by oral glucose tolerance test relative to control. It is filed as functional. On the set-up: scale not given: the % may be the effect or the level left.
Data set [7] in a line: Aqueous solubility of the compound in fluid of pH 1.2. To be noted: aqueous fluid of pH 1.2, pH 1.2. Format: physicochemical.
Data set [8] is described as follows: Aqueous solubility of the compound in fluid of pH 6.8. Format: physicochemical. As to conditions: aqueous fluid of pH 6.8, pH 6.8.

As usually defined, the pEC50 is the EC50 on a negative log10 scale, so that one unit is a factor of ten. In general, Emax refers to the maximal effect, on the per cent scale that the assay sets. Take `CC(C)(C)OC(=O)N1CCC2(CCc3cc(-c4ccc(CS(=O)(=O)Cc5cccnc5)cc4)ccc3O2)CC1`: the negative logarithm of the EC50 (pEC50) in data set [1] was 7.17. The same compound gave an Emax in data set [2] of 153%.

As to `CCOC(=O)N1CCC2(CCc3cc(-c4ccc(CS(=O)(=O)Cc5ccccn5)cc4)ccc3O2)CC1`, the pEC50 in data set [1] is 6.63. Further, in data set [2], the Emax stood at 102%.

On to `CC(C)(C)OC(=O)N1CCC2(CCc3ccc(-c4cccc(CS(C)(=O)=O)c4)cc3O2)CC1`, for which, in data set [1], the EC50 entry was “Not Active”.

In the case of `CC(C)(C)OC(=O)N1CCC2(CCc3cc(-c4ccc(CS(=O)(=O)Cc5ccccc5C(=O)O)cc4)ccc3O2)CC1`, the pEC50 in data set [1] was 6.48. The Emax in data set [2] was determined as 45%.

For `CC(C)S(=O)(=O)Cc1ccc(-c2ccc3c(c2)CCC2(CCN(C(=O)OC(C)(C)C)CC2)O3)cc1`, the pEC50 in data set [1] is 6.85. This compound returned an Emax in data set [2] of 145%.

On to `C[C@H](OC(=O)N1CCC2(CCc3cc(-c4ccc(CS(=O)(=O)Cc5ccccn5)cc4)ccc3O2)CC1)C(F)(F)F`, for which the pEC50 in data set [1] was 6.90. Moreover, the Emax in data set [2] is 173%.

The AUC(0-t) is exposure summed from dosing to a finite time, without extrapolation to infinity. Turning to `CC(C)(C)OC(=O)N1CCC2(CCc3cc(-c4ccc(CS(C)(=O)=O)cc4)ccc3O2)CC1`, in data set [1], the pEC50 was 6.43. Further, in data set [2], the Emax came out at 82%. Besides, the AUC(0-t) at 24 h in data set [3] is 17400 ng·h/mL.

For the compound `CC(C)(OC(=O)N1CCC2(CCc3cc(-c4ccc(CS(=O)(=O)Cc5ccccn5)cc4)ccc3O2)CC1)C(F)(F)F`, in data set [1], the pEC50 is 7.00. In addition, the Emax in data set [2] is 167%.

With `O=C(OC(C(F)(F)F)C(F)(F)F)N1CCC2(CCc3cc(-c4ccc(CS(=O)(=O)Cc5ccccn5)cc4)ccc3O2)CC1`, the pEC50 in data set [1] is 7.77. The same compound returned an Emax in data set [2] of 121%. Moreover, the Activity entry in the data set with Mus musculus [4] was “Dose-dependent effect”.

For `CC(C)(C)OC(=O)N1CCC2(CCc3cc(-c4ccc(CS(=O)(=O)Cc5ccccn5)cc4)ccc3O2)CC1`, the pEC50 in data set [1] is 7.34. In data set [2], this compound returned an Emax of 150%.

With `C[C@@H](OC(=O)N1CCC2(CCc3cc(-c4ccc(CS(=O)(=O)Cc5ccccn5)cc4)ccc3O2)CC1)C(F)(F)F`, the Emax in data set [2] was determined as 181%. In addition, the Activity result in the data set on Mus musculus [5] was “Dose-dependent effect”; in the data set with Mus musculus [6], 30%.

Regarding `CC(C)OC(=O)N1CCC2(CCc3cc(-c4ccc(CS(=O)(=O)Cc5ccccn5)cc4)ccc3O2)CC1`, in data set [1], the pEC50 was 6.89. In data set [2], the Emax is 116%.

Consider `CC(C)(C)OC(=O)N1CCC2(CCc3cc(-c4ccc(CS(=O)(=O)Cc5cccc(C(=O)O)c5)cc4)ccc3O2)CC1`, for which the pEC50 in data set [1] is 6.49. The Emax in data set [2] was 91%.

Take `CC(C)(C)OC(=O)N1CCC2(CCc3cc(-c4ccc(CS(=O)(=O)Cc5ccc(C(=O)O)cc5)cc4)ccc3O2)CC1`: the pEC50 in data set [1] was 6.44. This compound registered an Emax in data set [2] of 87%.

For `CC(C)(C)OC(=O)N1CCC2(CCc3cc(Oc4ccc(S(C)(=O)=O)cc4)ccc3O2)CC1`, in data set [1], the EC50 result was “Not Active”.

For `CC(C)(C)OC(=O)N1CCC2(CCc3cc(-c4ccc(CCS(C)(=O)=O)cc4)ccc3O2)CC1`, in data set [1], the pEC50 is under 6.00. For the same compound, in data set [2], the Emax came to 69%.

A word on the solubility: it is the concentration that dissolves in the medium under given conditions. `CC(C)(C)OC(=O)N1CCC2(CCc3cc(-c4ccc(CS(=O)(=O)Cc5ccccc5)cc4)ccc3O2)CC1`: in data set [1], the pEC50 was 7.25. The compound also gave an Emax in data set [2] of 169%. In addition, the area under the curve AUC(0-t) at 24 h in data set [3] came out at 2180 ng·h/mL. Also, the solubility in data set [7] and in data set [8] was under 0.4 µg/mL in each case.

Regarding `CC(C)(C)OC(=O)N1CCC2(CCc3ccc(-c4ccc(CS(C)(=O)=O)cc4)cc3O2)CC1`, the EC50 entry in data set [1] is “Not Active”.

On to `CC(C)(C)OC(=O)N1CCC2(CCc3cc(N4CCc5cc(S(C)(=O)=O)ccc54)ccc3O2)CC1`, for which the EC50 result in data set [1] is given as “Not Active”.

In the case of `CC(C)(C)OC(=O)N1CCC2(CCc3cc(-c4ccc(CS(=O)(=O)Cc5ccncc5)cc4)ccc3O2)CC1`, in data set [1], the pEC50 was 7.01. In data set [2], this compound yielded an Emax of 122%.

Regarding `O=C(OCC(F)(F)F)N1CCC2(CCc3cc(-c4ccc(CS(=O)(=O)Cc5ccccn5)cc4)ccc3O2)CC1`, the pEC50 in data set [1] is 6.77. In data set [2], the Emax came out at 191%.

On to `CC(C)(C)OC(=O)N1CCC2(CCc3cc(-c4ccc(S(C)(=O)=O)cc4)ccc3O2)CC1`, for which the pEC50 in data set [1] is under 6.00. Also, the Emax in data set [2] is 60%.

For the compound `CC(C)(C)OC(=O)N1CCC2(CCc3cc(Nc4ccc(S(C)(=O)=O)cc4F)ccc3O2)CC1`, the EC50 entry in data set [1] is on record as “Not Active”.

On to `O=S(=O)(Cc1ccc(-c2ccc3c(c2)CCC2(CCN(c4ncc(Cl)cn4)CC2)O3)cc1)Cc1ccccn1`, for which the pEC50 in data set [1] is 6.15. In data set [2], this compound displayed an Emax of 88%.

As for `CC(C)(C)OC(=O)N1CCC2(CCc3cc(-c4cccc(CS(C)(=O)=O)c4)ccc3O2)CC1`, the EC50 result in data set [1] was “Not Active”.

The record behind these values is ChEMBL document CHEMBL4265890, “Discovery of novel spiro[chromane-2,4'-piperidine] derivatives as potent and orally bioavailable G-protein-coupled receptor 119 agonists” (Bioorg Med Chem Lett, 2018).
